Laboratory results as given in patent US4798833A, “Guanine derivative” (priority 1983, dated 1989).
Each block holds one molecule with its values, some of them ahead of it.

Key:
HSV-1 (strain C42) [1] = experiment: Plaque reduction assay, inhibition of HSV-1 multiplication in HEL cells; format: cell-based, Herpes simplex type 1 virus; conditions: Human alphaherpesvirus 1, HEL (human embryonic lung) cells, read-out: HSV-1 in HEL cells ID50
HSV-1 thymidine kinase = HSV-1 thymidine kinase (Human herpesvirus 1, UniProt P0DTH5); experiment: biochemical; conditions: for Ki: HSV-1 thymidine kinase, read-out: Inhibition constant Ki
HSV-1 thymidine kinase, sequence (P0DTH5 whole entry): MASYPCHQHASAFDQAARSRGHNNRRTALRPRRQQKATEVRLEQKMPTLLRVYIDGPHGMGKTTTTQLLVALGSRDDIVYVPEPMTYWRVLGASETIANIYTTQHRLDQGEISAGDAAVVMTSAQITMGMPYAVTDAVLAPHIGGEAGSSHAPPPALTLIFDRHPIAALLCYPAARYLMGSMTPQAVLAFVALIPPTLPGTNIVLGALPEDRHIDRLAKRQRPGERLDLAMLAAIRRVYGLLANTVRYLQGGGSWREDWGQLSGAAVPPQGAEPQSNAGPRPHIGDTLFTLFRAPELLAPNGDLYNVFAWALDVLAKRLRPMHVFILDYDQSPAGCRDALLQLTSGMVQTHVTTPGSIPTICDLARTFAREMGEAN

[2] = Cellular toxicity, reduction in growth of human embryonic cells; conditions: flow 1000 cells
HSV-1 (strain C42) [3] = experiment: Plaque reduction assay, inhibition of HSV-1 multiplication in Vero cells; format: cell-based, Herpes simplex type 1 virus; conditions: read-out: Inhibition (%)/Conc. (μM), HSV-1 in Vero cells; for inhibition at 1 µM: Human alphaherpesvirus 1, 1 μM
HSV-1 (C42) = experiment: Systemic (i.p.) HSV-1 infection in mice; format: in vivo; conditions: treated animals
VZV (several strains) = experiment: Inhibition of VZV multiplication in HL cells, late antigens by ELISA; format: cell-based, Varicella zoster virus
Experimental: I. Inhibition of virus multiplication in cell cultures
Virol. 2 357 (1968). The effect on VZV (several strains) multiplication in HL (human lung fibroblast) cells by VSA 671 was determined by measuring the formation of late antigens by the ELISA technique as described by B. Wahren et al., J. Virological Methods 6, 141-149 (1983).

HSV-2 (strain 91075) = experiment: Systemic (i.p.) HSV-2 infection in mice; format: in vivo; conditions: treated animals
[4] = tested on: cutaneous herpesvirus infection; experiment: Cutaneous herpesvirus infection on guinea pigs, topical treatment; format: in vivo
Experimental: Thirty μl of solution or solvent was added topically 3 times per day for 4 days starting 24 h post inoculation.

[5] = 25 mg/kg i.p. twice daily 5 days, untreated 90, 21 days
[6] = 50 mg/kg i.p. twice daily 5 days, untreated 90, 21 days

Ki (HSV-1 thymidine kinase): 7 µM
SMILES: Nc1nc2c(ncn2C/C=C\CO)c(=O)[nH]1 [VSA 151, cis-9-(4-hydroxy-2-butenyl)guanine]
IC50 (HSV-1 (strain C42) [1]): 600 nM | inhibition at 48 h, 200 µM [2]: 0% | inhibition at 10 µM (HSV-1 (strain C42) [3]; Human alphaherpesvirus 1, 10 μM): > 90%

SMILES: Nc1nc2c(ncn2CC(CO)CCO)c(=O)[nH]1 (stereo not drawn) [VSA 671, 9-[4-hydroxy-2-(hydroxymethyl)butyl]guanine]
IC50 (HSV-1 (strain C42) [1]): 200 nM | Affinity for viral thymidine kinase (in words) (HSV-1 thymidine kinase): affinity close to that of the natural substrate, thymidine | Ki (HSV-1 thymidine kinase): 0.6 µM | Cumulative mortality (%) (treated/untreated) (HSV-1 (C42); [5]): 30% | Cumulative mortality (%) (treated/untreated) (HSV-1 (C42); [6]): 30% | inhibition at 48 h, 200 µM [2]: 18% | IC50 (VZV (several strains); Human alphaherpesvirus 3, HL (human lung fibroblast) cells, several strains, late antigens by ELISA, read-out: VZV in HL cells ID50): 1300 to 2500 nM | Effect against varicella zoster virus multiplication (VZV (several strains); in words): very good effect against varicella zoster virus multiplication | inhibition at 1 µM (HSV-1 (strain C42) [3]): > 90% | Cumulative mortality (%) (treated/untreated) (HSV-2 (strain 91075); [5]): 40% | Cumulative mortality (%) (treated/untreated) (HSV-2 (strain 91075); [6]): 30%

Ki (HSV-1 thymidine kinase): 25 µM
SMILES: Nc1nc2c(ncn2CC=C(CO)CO)c(=O)[nH]1 [VSA 668, 9-[4-hydroxy-3-(hydroxymethyl)-2-butenyl]guanine]
inhibition at 48 h, 200 µM [2]: 0% | inhibition at 25 µM (HSV-1 (strain C42) [3]; Human alphaherpesvirus 1, 25 μM): > 90%

SMILES: Nc1nc2c(ncn2CCC(CO)CO)c(=O)[nH]1 [VIS 873, 9-[4-hydroxy-3-(hydroxymethyl)butyl]guanine]
IC50 (HSV-1 (strain C42) [1]): 400 nM | Ki (HSV-1 thymidine kinase): 1.5 µM | Cumulative mortality (%) (treated/untreated) (HSV-1 (C42); 5 mg/kg i.p. twice daily 5 days, untreated 80, 21 days): 30% | Cumulative mortality (%) (treated/untreated) (HSV-1 (C42); 10 mg/kg i.p. twice daily 5 days, untreated 80, 21 days): 0% | inhibition at 48 h, 200 µM [2]: 7% | inhibition at 1 µM (HSV-1 (strain C42) [3]): > 90% | Cumulative mortality (%) (treated/untreated) (HSV-2 (strain 91075); 5 mg/kg i.p. twice daily 5 days, untreated 90, 21 days): 70% | Cumulative mortality (%) (treated/untreated) (HSV-2 (strain 91075); 10 mg/kg i.p. twice daily 5 days, untreated 90, 21 days): 20% | Cumulative mortality (%) (treated/untreated) (HSV-2 (strain 91075); [5]): 0% | Cumulative mortality (%) (treated/untreated) (HSV-2 (strain 91075); 50 mg/kg i.p. twice daily 5 days, untreated 100, 21 days): 10% | Percent reduction in cumulative score as compared to placebo treatment ([4]; 2.5% in dimethylsulfoxide, 30 μl topically 3 times per day for 4 days starting 24 h post inoculation): 36% | Therapeutic effect on cutaneous herpesvirus infections (in words) ([4]; topical): had a therapeutic effect on cutaneous herpesvirus infections when applied topically
